Read-outs that look alike come from different tables or passages of the source. Where a SMILES comes first, the peptide text is derived from it. Bridges are numbered along the chain shown (N, C = ends). Where no end group is shown, it is not given here.
Columns and labels:
[1] = tested on: panel of 20 ion channels; assay type: cell-based
Description: This example describes a method for assaying ion channel activity in cells.
Peptides were screened in duplicate at final concentrations of 20 μM and 200 nM, as determined by amino acid analysis, and diluted into HEPES buffered physiological saline (HBPS). HEK293 or CHO cells from the American Type Culture Collection (ATCC) were transfected with the appropriate ion channel before use. HEK293 cells were grown in Dulbecco's Modified Eagle Medium/Nutrient Mixture F-12, and CHO cells were cultured in Ham's F-12 media. All cultures were supplemented with 10% fetal bovine serum, 100 U/ml penicillin G, 100 μg/ml streptomycin sulfate, and the appropriate selection antibiotics. Prior to use, cells were washed twice with Hank's Balanced Salt Solution, and treated with Accutase cell detachment solution (Sigma-Aldrich). Cells were then washed. Peptides and controls were incubated with cells for at least five minutes.
Percent inhibition was defined as: (1-(Ipeptide/Icontrol))×100%).
Percent values were calculated using the following formula: % activation=(IPeptide/Icontrol)×100%, where IPeptide is the current produced by co-application a peptide with agonist, and Icontrol refers to the current produced by stimulation in control. Control used for each ion channel is the reference compound matched to a particular channel, as illustrated in TABLE 10 below.

[2] = molecular target: T1, Cav2.1 (Homo sapiens, UniProt O00555); assay: cell-based; conditions: read-out: Ion channel activity (ion channel inhibition)
T1 construct: host or cells: HEK293 or CHO
Procedure, shortened: (§1)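 Transfected HEK293 or CHO cells were exposed for at least 5 min to peptides at 200 nM and 20 μM final, tested in duplicate, in HEPES-buffered physiological saline. Activation was taken as peptide-plus-agonist current over control current ×100, and inhibition as 1 minus that ratio ×100. Each channel's control was its own reference compound.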

[3] = molecular target: T2, Cav2.2 (Homo sapiens, UniProt Q00975); assay: cell-based; conditions: read-out: Ion channel activity (ion channel inhibition)
T2 construct: host or cells: HEK293 or CHO
Procedure, shortened: as §1

[4] = molecular target: Nav1.5 (Homo sapiens, UniProt Q14524); assay: in vitro
Procedure, shortened: as §1

[5] = molecular target: T3, hERG (Homo sapiens, UniProt Q12809); assay: in vitro; conditions: for activity at 20 µM: human
Procedure, shortened: as §1

[6] = molecular target: T4, Nav1.7 (Homo sapiens, UniProt Q15858); assay: cell-based; assay type: cell-based; conditions: read-out: Ion channel activity (ion channel inhibition)
T4 construct: host or cells: HEK293 or CHO

[7] = molecular target: T5, Nav1.5 cardiac sodium channel (human SCN5A gene) (Homo sapiens, UniProt Q14524); conditions: read-out: IC50 Nav1.5 ion channel inhibition, TP2; human Nav1.5 in CHO cells; TP2 (inactivated state inhibition)
[8] = molecular target: T5, Nav1.5 cardiac sodium channel (human SCN5A gene); assay: cell-based
[9] = molecular target: Kv1.3 potassium channel (human KCNA3 gene) (Homo sapiens, UniProt P22001); assay: cell-based; set-up: host or cells: CHO; conditions: human Kv1.3 in CHO cells
[10] = molecular target: Kv1.5 potassium channel (human KCNA5 gene) (Homo sapiens, UniProt P22460); assay: cell-based; set-up: host or cells: CHO; conditions: human Kv1.5 in CHO cells
[11] = molecular target: Nav1.3 sodium channel (human SCN3A gene) (Homo sapiens, UniProt Q9NY46); assay: cell-based; set-up: host or cells: CHO
[12] = molecular target: Nav1.4 sodium channel (human SCN4A gene) (Homo sapiens, UniProt P35499); assay: cell-based; set-up: host or cells: CHO; conditions: human Nav1.4 in CHO cells
[13] = molecular target: Nav1.7 sodium channel (human SCN9A gene) (Homo sapiens, UniProt Q15858); assay: cell-based; set-up: expressed in transfected cells; host or cells: CHO cells; conditions: human Nav1.7 in CHO cells
[14] = molecular target: T6, Kv1.2 (Homo sapiens, UniProt P16389); assay: cell-based; assay type: cell-based; conditions: Kv1.2, percentage of control, 100% = no change, read-out: Ion channel activity (ion channel inhibition); for activity at 20 µM: peptide at 20 μM
T6 construct: host or cells: HEK293 or CHO
Procedure, shortened: as §1

[15] = molecular target: T7, Kv1.3 (Homo sapiens, UniProt P22001); assay: cell-based; assay type: cell-based; conditions: Kv1.3; peptide at 20 μM; percentage of control, 100% = no change; read-out: Ion channel activity (ion channel inhibition)
T7 construct: host or cells: HEK293 or CHO
Procedure, shortened: as §1

[16] = molecular target: T3, hERG; conditions: cited from earlier work
[17] = tested on: calcium channels (ryanodine receptors); conditions: prior reports; cited from earlier work

T6 sequence (P16389 whole entry): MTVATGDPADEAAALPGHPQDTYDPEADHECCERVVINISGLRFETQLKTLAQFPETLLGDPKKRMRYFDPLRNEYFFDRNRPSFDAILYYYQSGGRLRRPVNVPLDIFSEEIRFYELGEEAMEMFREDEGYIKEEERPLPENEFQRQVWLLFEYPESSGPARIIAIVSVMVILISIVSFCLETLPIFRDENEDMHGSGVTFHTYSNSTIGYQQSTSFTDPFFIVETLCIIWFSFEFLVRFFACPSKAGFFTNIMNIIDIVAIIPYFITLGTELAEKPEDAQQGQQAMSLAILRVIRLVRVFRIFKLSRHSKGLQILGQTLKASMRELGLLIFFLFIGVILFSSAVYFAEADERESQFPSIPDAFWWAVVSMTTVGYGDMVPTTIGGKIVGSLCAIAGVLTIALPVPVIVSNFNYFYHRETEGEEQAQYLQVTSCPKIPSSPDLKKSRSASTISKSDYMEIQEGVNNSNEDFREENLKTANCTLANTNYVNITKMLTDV
T3 sequence (Q12809 whole entry): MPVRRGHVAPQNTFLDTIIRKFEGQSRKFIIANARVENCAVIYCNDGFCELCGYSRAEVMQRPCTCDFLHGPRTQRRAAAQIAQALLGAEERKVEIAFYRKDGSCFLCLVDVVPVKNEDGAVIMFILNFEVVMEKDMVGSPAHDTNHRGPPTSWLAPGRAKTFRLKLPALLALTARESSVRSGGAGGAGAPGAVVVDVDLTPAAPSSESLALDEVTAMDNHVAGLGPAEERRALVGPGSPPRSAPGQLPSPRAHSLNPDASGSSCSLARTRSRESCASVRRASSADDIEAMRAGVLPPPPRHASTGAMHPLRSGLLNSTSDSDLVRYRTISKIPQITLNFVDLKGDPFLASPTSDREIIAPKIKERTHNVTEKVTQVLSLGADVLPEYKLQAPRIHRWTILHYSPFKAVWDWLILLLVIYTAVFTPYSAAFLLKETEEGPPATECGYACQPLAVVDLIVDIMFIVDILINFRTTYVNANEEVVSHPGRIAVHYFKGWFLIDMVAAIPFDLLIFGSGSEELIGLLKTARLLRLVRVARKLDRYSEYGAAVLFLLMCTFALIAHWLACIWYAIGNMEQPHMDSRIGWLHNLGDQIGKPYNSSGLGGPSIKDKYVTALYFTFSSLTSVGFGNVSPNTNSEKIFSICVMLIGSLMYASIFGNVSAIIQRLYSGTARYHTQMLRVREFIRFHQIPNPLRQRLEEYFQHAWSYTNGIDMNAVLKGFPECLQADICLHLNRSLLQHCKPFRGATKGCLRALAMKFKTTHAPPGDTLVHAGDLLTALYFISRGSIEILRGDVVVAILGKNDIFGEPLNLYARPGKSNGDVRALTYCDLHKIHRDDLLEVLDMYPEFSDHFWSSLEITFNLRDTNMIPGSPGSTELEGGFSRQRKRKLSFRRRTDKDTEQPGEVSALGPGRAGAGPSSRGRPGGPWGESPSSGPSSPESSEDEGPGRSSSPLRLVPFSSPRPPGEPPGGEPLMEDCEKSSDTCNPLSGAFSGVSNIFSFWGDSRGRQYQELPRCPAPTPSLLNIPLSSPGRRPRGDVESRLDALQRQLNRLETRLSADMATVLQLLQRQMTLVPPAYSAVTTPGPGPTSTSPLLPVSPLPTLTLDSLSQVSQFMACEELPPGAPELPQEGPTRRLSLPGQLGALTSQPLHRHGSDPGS
Nav1.3 sodium channel (human SCN3A gene), sequence (Q9NY46 whole entry): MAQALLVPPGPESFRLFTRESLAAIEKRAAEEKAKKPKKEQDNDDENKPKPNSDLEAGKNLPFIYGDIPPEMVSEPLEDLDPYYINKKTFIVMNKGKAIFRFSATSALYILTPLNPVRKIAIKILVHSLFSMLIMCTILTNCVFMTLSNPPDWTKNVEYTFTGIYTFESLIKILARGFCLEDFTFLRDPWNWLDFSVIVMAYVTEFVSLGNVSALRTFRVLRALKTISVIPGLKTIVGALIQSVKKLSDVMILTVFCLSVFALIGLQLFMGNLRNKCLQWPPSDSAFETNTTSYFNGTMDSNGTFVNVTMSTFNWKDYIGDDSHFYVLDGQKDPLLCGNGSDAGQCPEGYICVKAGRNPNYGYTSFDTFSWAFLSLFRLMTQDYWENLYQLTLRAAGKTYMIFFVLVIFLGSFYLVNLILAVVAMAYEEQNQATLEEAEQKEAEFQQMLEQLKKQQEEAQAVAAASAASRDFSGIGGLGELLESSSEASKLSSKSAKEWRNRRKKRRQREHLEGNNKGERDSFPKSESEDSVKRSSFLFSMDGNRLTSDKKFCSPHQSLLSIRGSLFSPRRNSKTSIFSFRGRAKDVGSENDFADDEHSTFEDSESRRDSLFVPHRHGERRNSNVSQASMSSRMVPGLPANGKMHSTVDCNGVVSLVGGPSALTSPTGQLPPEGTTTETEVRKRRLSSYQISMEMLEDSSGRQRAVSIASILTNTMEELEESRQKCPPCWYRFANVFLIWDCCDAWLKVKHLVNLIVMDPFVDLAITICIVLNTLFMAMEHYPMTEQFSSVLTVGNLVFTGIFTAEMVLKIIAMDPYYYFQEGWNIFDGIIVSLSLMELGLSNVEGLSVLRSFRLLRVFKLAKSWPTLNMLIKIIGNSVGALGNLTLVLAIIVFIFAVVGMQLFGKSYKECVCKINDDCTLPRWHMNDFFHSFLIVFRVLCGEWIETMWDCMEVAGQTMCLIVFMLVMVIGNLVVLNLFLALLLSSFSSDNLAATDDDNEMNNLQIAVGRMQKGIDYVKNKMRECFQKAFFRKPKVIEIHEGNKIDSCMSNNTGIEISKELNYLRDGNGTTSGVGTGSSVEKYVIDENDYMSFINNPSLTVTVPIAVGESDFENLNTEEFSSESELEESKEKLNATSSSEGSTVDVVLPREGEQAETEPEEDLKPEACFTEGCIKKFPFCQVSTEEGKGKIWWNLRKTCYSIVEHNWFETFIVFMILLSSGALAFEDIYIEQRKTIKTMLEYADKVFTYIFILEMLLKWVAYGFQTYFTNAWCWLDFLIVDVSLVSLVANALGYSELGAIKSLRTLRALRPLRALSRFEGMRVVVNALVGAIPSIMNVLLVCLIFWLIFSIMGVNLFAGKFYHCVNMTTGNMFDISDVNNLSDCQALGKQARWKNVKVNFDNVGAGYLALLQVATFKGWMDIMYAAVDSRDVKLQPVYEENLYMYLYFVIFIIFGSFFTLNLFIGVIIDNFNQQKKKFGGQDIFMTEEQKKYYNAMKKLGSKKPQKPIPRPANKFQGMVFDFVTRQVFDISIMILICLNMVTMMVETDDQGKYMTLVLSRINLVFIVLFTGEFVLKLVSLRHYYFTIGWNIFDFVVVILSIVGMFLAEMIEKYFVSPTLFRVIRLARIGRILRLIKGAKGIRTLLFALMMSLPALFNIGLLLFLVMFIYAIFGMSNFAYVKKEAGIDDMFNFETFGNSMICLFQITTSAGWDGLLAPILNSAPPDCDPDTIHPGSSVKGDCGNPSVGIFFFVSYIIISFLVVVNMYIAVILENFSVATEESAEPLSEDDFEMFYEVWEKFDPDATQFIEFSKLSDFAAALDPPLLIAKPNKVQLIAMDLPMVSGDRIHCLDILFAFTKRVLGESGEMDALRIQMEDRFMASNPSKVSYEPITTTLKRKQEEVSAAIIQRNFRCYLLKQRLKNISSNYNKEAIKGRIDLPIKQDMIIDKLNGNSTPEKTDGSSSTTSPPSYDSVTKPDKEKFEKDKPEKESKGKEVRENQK
Kv1.3 potassium channel (human KCNA3 gene), sequence (P22001 whole entry): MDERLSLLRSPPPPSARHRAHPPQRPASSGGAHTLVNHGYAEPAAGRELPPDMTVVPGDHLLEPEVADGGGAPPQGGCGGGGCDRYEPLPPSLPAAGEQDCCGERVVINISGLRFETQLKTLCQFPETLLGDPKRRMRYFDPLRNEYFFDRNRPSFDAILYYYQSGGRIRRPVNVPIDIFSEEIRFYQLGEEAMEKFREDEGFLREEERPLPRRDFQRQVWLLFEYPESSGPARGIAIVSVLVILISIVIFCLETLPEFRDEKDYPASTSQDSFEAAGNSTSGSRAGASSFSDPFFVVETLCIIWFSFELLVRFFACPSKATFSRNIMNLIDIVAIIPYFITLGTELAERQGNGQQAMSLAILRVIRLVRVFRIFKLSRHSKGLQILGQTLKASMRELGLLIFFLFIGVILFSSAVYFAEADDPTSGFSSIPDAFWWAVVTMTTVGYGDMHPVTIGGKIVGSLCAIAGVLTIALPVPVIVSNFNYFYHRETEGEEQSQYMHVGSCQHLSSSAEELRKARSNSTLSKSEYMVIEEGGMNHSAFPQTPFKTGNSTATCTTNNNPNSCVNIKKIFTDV
Kv1.5 potassium channel (human KCNA5 gene), sequence (P22460 whole entry): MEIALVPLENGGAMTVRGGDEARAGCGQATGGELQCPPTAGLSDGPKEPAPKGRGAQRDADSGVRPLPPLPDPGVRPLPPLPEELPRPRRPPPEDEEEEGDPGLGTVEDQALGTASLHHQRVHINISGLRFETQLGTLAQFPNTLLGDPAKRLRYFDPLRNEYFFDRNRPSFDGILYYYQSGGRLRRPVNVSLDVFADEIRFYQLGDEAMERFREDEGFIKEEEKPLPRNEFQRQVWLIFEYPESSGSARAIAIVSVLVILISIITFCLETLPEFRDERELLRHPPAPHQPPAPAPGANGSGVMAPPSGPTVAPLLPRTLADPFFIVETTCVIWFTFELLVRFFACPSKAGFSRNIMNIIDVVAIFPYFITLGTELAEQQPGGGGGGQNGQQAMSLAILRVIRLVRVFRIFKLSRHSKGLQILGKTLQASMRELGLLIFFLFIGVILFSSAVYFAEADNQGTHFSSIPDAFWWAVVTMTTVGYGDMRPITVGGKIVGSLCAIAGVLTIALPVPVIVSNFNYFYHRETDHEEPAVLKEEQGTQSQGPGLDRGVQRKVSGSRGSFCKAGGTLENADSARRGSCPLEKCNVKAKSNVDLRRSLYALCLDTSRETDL
T7 sequence (P22001 whole entry): as the sequence (P22001 whole entry) above

CC[C@H](C)[C@@H]1NC(=O)[C@H](CC(N)=O)NC(=O)[C@H](CCCNC(=N)N)NC(=O)[C@@H]2CCCN2C(=O)[C@H](Cc2c[nH]c3ccccc23)NC(=O)[C@H](CCCCN)NC(=O)[C@H](CO)NC(=O)[C@H](CCCCN)NC(=O)[C@@H]2CSSC[C@@H]3NC(=O)[C@H](CCCCN)NC(=O)CNC(=O)[C@H](Cc4c[nH]c5ccccc45)NC(=O)[C@H](Cc4ccccc4)NC(=O)[C@H](CCCNC(=N)N)NC(=O)[C@H](C(C)C)NC(=O)[C@@H](NC(=O)[C@H](CC(=O)O)NC(=O)[C@H](CO)NC(=O)CN)CSSC[C@H](NC(=O)[C@H](CSSC[C@@H](C(=O)N[C@H](C(=O)N[C@@H](Cc4c[nH]c5ccccc45)C(=O)N[C@@H](CC(=O)O)C(=O)NCC(=O)N[C@@H](CO)C(=O)N[C@H](C(=O)NCC(=O)O)C(C)C)C(C)C)NC1=O)NC(=O)[C@H](CC(=O)O)NC(=O)[C@H](CO)NC(=O)[C@H]([C@@H](C)O)NC(=O)[C@H](CCC(N)=O)NC(=O)[C@H](CO)NC3=O)C(=O)N1CCC[C@H]1C(=O)N[C@@H](Cc1c[nH]cn1)C(=O)N[C@@H](CC(C)C)C(=O)N[C@@H](C)C(=O)N2 [SEQ ID NO: 7]
Inhibition of voltage-sensitive calcium channels [1]: inhibited voltage-sensitive calcium channels | activity at 20 µM [2]: < 50% | activity at 20 µM [3]: < 50% | activity at 20 µM [4]: < 50% | activity at 20 µM [5]: < 50% | activity at 20 µM [6]: < 50%

CC[C@H](C)[C@@H]1NC(=O)[C@H](CCC(=O)O)NC(=O)[C@H](CCCNC(=N)N)NC(=O)[C@H](CCCNC(=N)N)NC(=O)[C@@H]2CSSC[C@@H](C(=O)N[C@@H](Cc3ccc(O)cc3)C(=O)N[C@@H](CCCNC(=N)N)C(=O)N[C@@H](CC(N)=O)C(=O)O)NC(=O)[C@H](C(C)C)NC(=O)[C@@H]3CSSC[C@H](NC(=O)[C@H](CO)NC(=O)CNC(=O)CNC(=O)[C@H](CCC(N)=O)NC(=O)[C@@H](NC(=O)[C@H](CCCCN)NC(=O)[C@@H](NC(=O)[C@H](CC(N)=O)NC(=O)[C@@H](NC(=O)[C@H](CCC(N)=O)NC(=O)[C@@H](NC(=O)[C@H](CCC(N)=O)NC(=O)[C@H](CO)NC(=O)CN)C(C)C)[C@@H](C)O)C(C)C)CSSC[C@H](NC(=O)[C@H](CCCCN)NC(=O)CNC(=O)[C@H](C)NC(=O)[C@H](C)NC(=O)[C@H](C(C)C)NC(=O)CNC1=O)C(=O)N[C@@H]([C@@H](C)CC)C(=O)N[C@@H](CC(N)=O)C(=O)NCC(=O)N[C@@H](CCCCN)C(=O)N3)C(=O)N[C@@H](C)C(=O)N[C@@H](CO)C(=O)N[C@@H](C(C)C)C(=O)N2 [SEQ ID NO: 10] (H-GSQVQTNVKCQGGSCASVCRREIGVAAGKCINGKCVCYRN-OH; disulfide 10-30, 15-35, 19-37)
IC50 [7]: > 1000 nM | IC50 [8]: > 1000 nM | IC50 ([9]; test pulse TP1, read-out: IC50 Kv1.3 ion channel inhibition, TP1): > 1000 nM | IC50 ([9]; test pulse TP6, read-out: IC50 Kv1.3 ion channel inhibition, TP6): > 1000 nM | IC50 ([10]; test pulse TP1, read-out: IC50 Kv1.5 ion channel inhibition, TP1): > 1000 nM | IC50 ([10]; test pulse TP6, read-out: IC50 Kv1.5 ion channel inhibition, TP6): > 1000 nM | IC50 ([11]; human Nav1.3 in CHO cells, TP1 (tonic inhibition), read-out: IC50 Nav1.3 ion channel inhibition, TP1): > 1000 nM | IC50 ([11]; human Nav1.3 in CHO cells, TP2 (inactivated state inhibition), read-out: IC50 Nav1.3 ion channel inhibition, TP2): > 1000 nM | IC50 ([12]; TP1 (tonic inhibition), read-out: IC50 Nav1.4 ion channel inhibition, TP1): > 1000 nM | IC50 ([12]; TP2 (inactivated state inhibition), read-out: IC50 Nav1.4 ion channel inhibition, TP2): > 1000 nM | IC50 ([13]; TP1 (tonic inhibition), read-out: IC50 Nav1.7 ion channel inhibition, TP1): > 1000 nM | IC50 ([13]; TP2 (inactivated state inhibition), read-out: IC50 Nav1.7 ion channel inhibition, TP2): > 1000 nM

CC[C@H](C)[C@H](NC(=O)[C@H](CC(=O)O)NC(=O)[C@@H](NC(=O)[C@@H]1CCCN1C(=O)[C@H](CCCNC(=N)N)NC(=O)[C@H](CO)NC(=O)CN)[C@@H](C)O)C(=O)N[C@@H](CCCCN)C(=O)N[C@H]1CSSC[C@@H]2NC(=O)[C@H](CCCNC(=N)N)NC(=O)CNC(=O)[C@H](CC(N)=O)NC(=O)[C@H]([C@@H](C)O)NC(=O)[C@H](CCCCN)NC(=O)CNC(=O)[C@H](Cc3ccccc3)NC(=O)[C@H](CCCNC(=N)N)NC(=O)[C@H](CO)NC(=O)[C@H](CCCCN)NC(=O)[C@@H]3CSSC[C@@H](C(=O)N[C@@H](Cc4ccccc4)C(=O)O)NC(=O)[C@H](CC(=O)O)NC(=O)[C@H](CSSC[C@H](NC(=O)[C@H](CCC(N)=O)NC(=O)[C@H](Cc4ccc(O)cc4)NC(=O)[C@H](CO)NC(=O)[C@H](C)NC(=O)[C@H](CO)NC1=O)C(=O)N[C@@H](Cc1ccccc1)C(=O)N1CCC[C@H]1C(=O)N[C@@H](C(C)C)C(=O)N3)NC(=O)[C@H](CC(C)C)NC(=O)CNC(=O)[C@H](CC(N)=O)NC(=O)[C@H](C(C)C)NC2=O [SEQ ID NO: 17] (H-GSRPTDIKCSASYQCFPVCKSRFGKTNGRCVNGLCDCF-OH; disulfide 9-30, 15-35, 19-37)
Activity against / inhibition of hERG (Kv11.1) ([5]; 0.2 or 20 μM, FIG. 2): confirmed hERG inhibition | activity at 20 µM [5]: < 50% | activity at 20 µM [14]: < 50% | activity at 20 µM [15]: < 50% | hERG inhibition or binding, previously reported [16]: previously been demonstrated to bind to hERG

NC1=N[C@H](O)[C@H]2[C@H]3O[C@]4(O)O[C@@H]([C@@H](O)[C@@]2(N1)[C@@H]4O)[C@]3(O)CO [TTX, Tetrodotoxin, reference compound]
IC50 ([11]; read-out: IC50 Nav1.3 ion channel inhibition, TP1): 33 nM | IC50 ([11]; read-out: IC50 Nav1.3 ion channel inhibition, TP2): 28 nM

GSDRDSCIDKSRCSKYGYYQECQDCCKKAGHNGGTCMFFKCKCA (disulfide 7-25, 13-36, 22-41, 26-43) [SEQ ID NO: 14]
Activity on potassium channels ([1]; potassium channels of the panel, 0.2 or 20 μM, FIG. 2): showed activity against additional potassium channels | activity at 20 µM [5]: < 50% | activity at 0.2 µM ([14]; peptide at 0.2 μM): < 80% | activity at 20 µM [14]: < 50% | hERG inhibition or binding, previously reported [16]: previously reported to inhibit hERG channels

GSGDCLPHLKRCKENNDCCSKKCKRRGANPEKRCR [SEQ ID NO: 11]
Activity against additional potassium channels or serotonin receptors (e.g., 5-HT3a) ([1]; 0.2 or 20 μM, FIG. 2): showed activity against additional potassium channels or serotonin receptors (e.g., 5-HT3a) | Inhibition of calcium channels (ryanodine receptors), reported [17]: reported to inhibit calcium channels (ryanodine receptors)

GSSEKDCIKHLQRCRENKDCCSKKCSRRGTNPEKRCR [SEQ ID NO: 3]
Activity against additional potassium channels or serotonin receptors (e.g., 5-HT3a) ([1]; 0.2 or 20 μM, FIG. 2): showed activity against additional potassium channels or serotonin receptors (e.g., 5-HT3a) | Inhibition of calcium channels (ryanodine receptors), reported [17]: reported to inhibit calcium channels (ryanodine receptors)
